{"source": "patent US20120190743A1", "about": "“COMPOUNDS FOR TREATING DISORDERS OR DISEASES ASSOCIATED WITH NEUROKININ 2 RECEPTOR ACTIVITY” (UNITED PARAGON ASSOCIATES INC., priority 2009, published 2012)", "key": {"[1]": {"molecular_target": "T1, human NK2 receptor (Homo sapiens, UniProt P21452)", "T1 construct": "expressed in transfected cells; host or cells: Chinese Hamster Ovary (CHO) cells", "T1 sequence (P21452 1-398)": "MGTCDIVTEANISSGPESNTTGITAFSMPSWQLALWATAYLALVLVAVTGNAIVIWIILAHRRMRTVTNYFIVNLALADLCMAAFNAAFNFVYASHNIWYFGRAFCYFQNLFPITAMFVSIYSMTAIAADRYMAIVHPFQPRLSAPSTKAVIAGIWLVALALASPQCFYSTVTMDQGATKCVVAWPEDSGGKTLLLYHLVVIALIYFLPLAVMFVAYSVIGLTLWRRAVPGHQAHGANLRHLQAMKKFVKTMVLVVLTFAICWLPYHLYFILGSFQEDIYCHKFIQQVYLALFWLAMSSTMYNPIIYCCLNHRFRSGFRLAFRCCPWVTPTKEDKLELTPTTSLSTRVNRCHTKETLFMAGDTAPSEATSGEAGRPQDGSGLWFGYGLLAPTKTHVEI", "experiment": "[125I]neurokinin A radioligand binding assay, CHO cells expressing recombinant human NK2 receptor", "conditions": "various concentrations", "procedure": "The contents of Formulation A capsules were dissolved using various solvents and extracted using four different processes, as described in detail below. […] These isolates were called: Sample #19 Top Isolate, Sample #19 Bottom Isolate, Sample #20 Top Isolate, Sample #20 Bottom Isolate, Fraction X Isolate and Sample #2 Isolate. These isolates were then each tested in the radioligand binding assay."}, "[2]": {"molecular_target": "T1, human NK2 receptor", "experiment": "Cellular/functional Ca2+ flux antagonist assay, CHO-K1 cells expressing recombinant human NK2 receptor", "type": "cell-based", "conditions": "3×10^−7 M to 1×10^−4 M, agonist [bAla]-NKA (4-10) 0.3 nM, FIG. 12", "procedure": "6-methyl-myristic acid 2,3-dihydroxypropyl ester was synthesized as described above, and myristic acid 2,3-dihydroxypropyl ester was obtained. They were each prepared as solutions by addition of dimethyl sulfoxide (DMSO) to a concentration of 10 mM. These compounds were then used in cellular/functional calcium flux agonist and antagonist assays to determine the effect the compounds have on human NK2 receptor activity as measured by changes intracellular calcium measurements. These assays were carried out based on the method of Gerard et al.\nThe NK2 receptor antagonist assay was performed essentially as follows. CHO-K1 cells stably expressing recombinant human NK2 receptor were plated on mixed extracellular matrix overnight in complete media. One hour before the assay, the media was replaced with Hank's Buffered Salt Solution (HBSS) containing 0.1% bovine serum albumin. The cells were then loaded with dye that measures intracellular calcium and baseline measurements of intracellular calcium were taken. […] Fluorescence at 485 nm excitation/515 nm emission was measured every 2 seconds for at least two minutes. The peak height of fluorescence in each of the wells receiving controls, compound 2 or compound 3 was recorded and compared to the peak height of fluorescence in the wells receiving only the agonist. […]"}}}
{"smiles": "CCCCCCCCC(C)CCCCC(=O)OCC(O)CO", "note": "(stereo not shown) [6-methyl-myristic acid 2,3-dihydroxypropyl ester]", "values": [{"measurement": "effect on neurokinin A binding to the NK2 receptor (in words)", "setting": "[1]", "result": "inhibited the ability of neurokinin A to bind the NK2 receptor in a concentration-dependent manner"}, {"measurement": "antagonist activity in functional NK2 receptor antagonist assay (in words)", "setting": "[2]", "result": "displayed antagonist activity"}]}
{"smiles": "CCCCCCCCCCCCCC(=O)OCC(O)CO", "note": "(stereo not shown) [myristic acid 2,3-dihydroxypropyl ester]", "values": [{"measurement": "effect on neurokinin A binding to the NK2 receptor (in words)", "setting": "[1]", "result": "inhibited the ability of neurokinin A to bind the NK2 receptor"}, {"measurement": "antagonist activity in functional NK2 receptor antagonist assay (in words)", "setting": "[2]", "result": "displayed antagonist activity"}]}
